Read-outs that look alike come from different tables or passages of the source.

Holding throughout (format): biochemical
One assay addresses T1, recombinant human VAP-1 (Homo sapiens, UniProt Q16853).
T1 construct: purchased R&D systems
T1 sequence (Q16853 1-763): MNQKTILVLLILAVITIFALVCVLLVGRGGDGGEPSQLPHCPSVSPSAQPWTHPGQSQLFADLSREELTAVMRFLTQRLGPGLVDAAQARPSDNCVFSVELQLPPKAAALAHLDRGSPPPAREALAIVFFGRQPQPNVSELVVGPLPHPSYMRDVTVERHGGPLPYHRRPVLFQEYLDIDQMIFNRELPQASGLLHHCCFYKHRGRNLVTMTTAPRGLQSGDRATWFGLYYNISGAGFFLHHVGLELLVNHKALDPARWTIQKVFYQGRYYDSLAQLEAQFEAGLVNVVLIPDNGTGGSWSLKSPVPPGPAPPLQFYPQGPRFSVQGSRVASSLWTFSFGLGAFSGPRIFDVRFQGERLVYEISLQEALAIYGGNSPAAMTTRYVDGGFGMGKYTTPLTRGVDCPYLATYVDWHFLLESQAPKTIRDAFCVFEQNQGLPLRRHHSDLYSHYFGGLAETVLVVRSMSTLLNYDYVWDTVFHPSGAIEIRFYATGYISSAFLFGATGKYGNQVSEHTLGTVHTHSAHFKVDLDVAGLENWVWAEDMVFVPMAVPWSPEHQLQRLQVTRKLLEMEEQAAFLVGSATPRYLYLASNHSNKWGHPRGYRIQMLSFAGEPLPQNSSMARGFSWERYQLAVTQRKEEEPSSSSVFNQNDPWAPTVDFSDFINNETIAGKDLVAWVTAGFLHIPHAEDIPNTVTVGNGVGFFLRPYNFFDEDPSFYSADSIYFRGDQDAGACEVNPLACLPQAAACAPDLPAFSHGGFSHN
The assay is described as follows: Activity on recombinant human VAP-1, Amplex Red HRP-coupled hydrogen peroxide assay, benzylamine substrate. Conditions: recombinant human VAP-1, benzylamine substrate, read-out: Inhibitory Activity (IC50, nM) human VAP-1. As to the method:
(§1) The compounds according to the present technology were evaluated in terms of activity on recombinant human VAP-1 (R&D systems) by measuring the level of hydrogen peroxide in horseradish peroxidase (HRP)-coupled reaction using Amplex Red Hydrogen Peroxide Assay Kit (Molecular Probes, Invitrogen, USA). The experiment was carried out at room temperature using benzylamine as a substrate. In the HRP-coupled reaction, hydrogen peroxide oxidation of 10-acetyl-3,7-dihydroxyphenoxazine (Amplex Red reagent) produces resorufin, which is a highly fluorescent compound. Briefly, the test compound was dissolved in dimethyl sulfoxide (DMSO) at a concentration of 20 mM. The dose-response assessment was made by 1:3 serial dilution in DMSO, thereby creating an 8 point curve. The concentration of the upper part was controlled according to the efficacy of the compounds, followed by dilution with a reaction buffer solution to obtain a final DMSO concentration less than 1%. To each well of a 96 black well plate, human VAP-1 purified in 50 mM sodium phosphate buffer solution (pH7.4) was added. The test compounds dissolved in DMSO were incubated with the human VAP-1 enzymes at 37° C. for 30 minutes. After 30-minute incubation, each well is added with a reaction mixture containing 200 uM Amplex Red reagent prepared from 50 mM sodium phosphate buffer solution (pH 7.4), 1 mM benzylamine, and 1 U/mL HRP. Fluorescence intensity was measured at several time points during 1-2 hours using a microplate reader (Flexstation3, Molecular Devices) under the wavelength condition exciting at 544 nm and reading the emission at 590 nm. The inhibitory effect of the compounds was measured as a decrease (%) in the signal rate as compared to the control group without any inhibitor (only diluted DMSO). Data was fixed to a logistic model with four variables and IC50 value was calculated using GraphPad Prism program.

The target in assay [1] is T2, recombinant human MAO-B (monoamine oxidase-B) (Homo sapiens, UniProt P27338).
T2 construct: purchased Sigma-Aldrich
T2 sequence (P27338 1-520): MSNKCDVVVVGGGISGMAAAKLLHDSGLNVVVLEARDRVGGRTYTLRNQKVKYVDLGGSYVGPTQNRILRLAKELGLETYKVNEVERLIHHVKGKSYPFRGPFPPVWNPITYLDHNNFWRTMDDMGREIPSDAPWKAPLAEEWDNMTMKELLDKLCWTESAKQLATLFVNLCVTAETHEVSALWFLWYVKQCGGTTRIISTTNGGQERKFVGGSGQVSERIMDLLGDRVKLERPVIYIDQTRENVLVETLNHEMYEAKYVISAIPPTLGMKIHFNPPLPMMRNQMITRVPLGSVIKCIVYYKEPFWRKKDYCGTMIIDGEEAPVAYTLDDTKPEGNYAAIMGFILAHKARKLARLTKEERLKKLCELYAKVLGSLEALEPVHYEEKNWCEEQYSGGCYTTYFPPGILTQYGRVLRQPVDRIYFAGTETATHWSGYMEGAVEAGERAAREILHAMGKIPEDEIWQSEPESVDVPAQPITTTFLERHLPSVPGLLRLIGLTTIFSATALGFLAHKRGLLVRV
Briefly: Activity on recombinant human MAO-B, Amplex Red method, 1 mM benzylamine substrate. The conditions noted are these: 1 mM benzylamine. As to the method:
as §1
(§2) In addition, the compounds according to the present technology were evaluated in terms of activity on a recombinant human MAO-A (monoamine oxidase-A, Sigma-Aldrich) and a recombinant human MAO-B (monoamine oxidase-B, Sigma-Aldrich) by using as substrates, 0.5 mM tyramine and 1 mM benzylamine, respectively, with a method similar to the activity evaluation method for recombinant human VAP-1. The compounds according to the present technology were also evaluated in terms of activity on a recombinant human DAO (diamine oxidase, R&D systems) by using as a substrate 1 mM putrescine with a method similar to the activity evaluation method for recombinant human VAP-1.

Assay [2] concerns the target T3, recombinant human DAO (diamine oxidase) (Homo sapiens, UniProt P19801).
T3 construct: purchased R&D systems
T3 sequence (P19801 20-751): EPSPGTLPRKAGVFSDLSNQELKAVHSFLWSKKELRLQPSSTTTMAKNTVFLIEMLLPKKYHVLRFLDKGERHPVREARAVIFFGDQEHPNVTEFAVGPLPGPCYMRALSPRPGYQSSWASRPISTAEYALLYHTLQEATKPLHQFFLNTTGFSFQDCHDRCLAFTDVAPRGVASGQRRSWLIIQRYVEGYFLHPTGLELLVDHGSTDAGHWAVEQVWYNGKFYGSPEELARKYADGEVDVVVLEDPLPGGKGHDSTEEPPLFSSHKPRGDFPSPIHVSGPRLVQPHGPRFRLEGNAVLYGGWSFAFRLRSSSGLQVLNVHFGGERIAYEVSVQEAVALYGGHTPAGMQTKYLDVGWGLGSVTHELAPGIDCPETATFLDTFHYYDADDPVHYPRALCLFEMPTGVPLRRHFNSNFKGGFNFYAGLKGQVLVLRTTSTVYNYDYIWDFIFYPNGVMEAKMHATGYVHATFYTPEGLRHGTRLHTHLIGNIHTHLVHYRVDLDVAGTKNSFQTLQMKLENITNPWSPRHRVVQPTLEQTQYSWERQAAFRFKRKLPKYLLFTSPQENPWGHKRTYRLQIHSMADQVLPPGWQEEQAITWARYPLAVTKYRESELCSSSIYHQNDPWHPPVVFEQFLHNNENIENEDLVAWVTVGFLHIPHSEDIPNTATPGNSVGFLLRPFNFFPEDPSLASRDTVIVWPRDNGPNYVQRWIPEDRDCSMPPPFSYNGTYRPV
Briefly: Activity on recombinant human DAO, Amplex Red method, 1 mM putrescine substrate. Conditions: recombinant human DAO; for IC50: read-out: Inhibitory Activity (IC50, nM) DAO. As to the method: as §1, §2

The mark [3] stands for this setting: 1 mM putrescine, * = between 10 and 100 nM, ** = between 300 and 1000 nM.

In the case of `NC/C(=C/F)Cn1ncn(-c2cc(F)c(Br)c(F)c2)c1=O` [Example 19, 2-[(2Z)-2-(aminomethyl)-3-fluoroprop-2-en-1-yl]-4-(4-bromo-3,5-difluorophenyl)-2,4-dihydro-3H-1,2,4-triazol-3-one], the half-maximal inhibitory concentration (IC50) on recombinant human VAP-1 (30 min preincubation at 37° C.) stood at 3.3 nM; in assay [1] (read-out: Inhibitory Activity (IC50, nM) MAO-B), 4.4 nM; in assay [2] (setting [3]), 13 nM.
With `Cc1c(-c2ccc(N3CCOCC3)nc2)cccc1-n1cnn(C/C(=C/F)CN)c1=O` [Example 110, 2-[(2E)-2-(aminomethyl)-3-fluoroprop-2-en-1-yl]-4-{2-methyl-3-[6-(morpholin-4-yl)pyridin-3-yl]phenyl}-2,4-dihydro-3H-1,2,4-triazol-3-one], on recombinant human VAP-1 (30 min preincubation at 37° C.), the concentration for half-maximal inhibition (IC50) came to 4.2 nM. Also, the “Inhibitory Activity (IC50, nM) MAO-B” value in assay [1] is given as “no inhibitory”. Also, the “Inhibitory Activity (IC50, nM) DAO” value in assay [2] (setting [3]) is reported as “no inhibitory”.
For the compound `Cc1c(-c2ccc3c(c2)OCO3)cccc1-n1cnn(C/C(=C/F)CN)c1=O` [Example 111, 2-[(2E)-2-(aminomethyl)-3-fluoroprop-2-en-1-yl]-4-[3-(1,3-benzodioxol-5-yl)-2-methylphenyl]-2,4-dihydro-3H-1,2,4-triazol-3-one], the concentration for half-maximal inhibition (IC50) on recombinant human VAP-1 (30 min preincubation at 37° C.) turned out to be 2.8 nM. Further, the “Inhibitory Activity (IC50, nM) MAO-B” value in assay [1] is “no inhibitory”. In assay [2] (setting [3]), the “Inhibitory Activity (IC50, nM) DAO” value is given as “no inhibitory”.
In the case of `Cc1c(-c2ccc3c(c2)OCCO3)cccc1-n1cnn(C/C(=C/F)CN)c1=O` [Example 112, 2-[(2E)-2-(aminomethyl)-3-fluoroprop-2-en-1-yl]-4-[3-(2,3-dihydro-1,4-benzodioxin-6-yl)-2-methylphenyl]-2,4-dihydro-3H-1,2,4-triazol-3-one], the IC50 at recombinant human VAP-1 (30 min preincubation at 37° C.) was 2.5 nM. For the same compound, in assay [1], the “Inhibitory Activity (IC50, nM) MAO-B” value is listed as “no inhibitory”. Further, in assay [2] (setting [3]), the “Inhibitory Activity (IC50, nM) DAO” value was “no inhibitory”.
For the compound `Cc1cc(N2CCNCC2)cnc1-n1cnn(C/C(=C/F)CN)c1=O` [Example 131, 2-[(2E)-2-(aminomethyl)-3-fluoroprop-2-en-1-yl]-4-[3-methyl-5-(piperazin-1-yl)pyridin-2-yl]-2,4-dihydro-3H-1,2,4-triazol-3-one], the IC50 is 8.2 nM at recombinant human VAP-1 (30 min preincubation at 37° C.) and 4200 nM in assay [2] (setting [3]).
Turning to `Cc1cc(-c2ccc(-c3nnc[nH]3)cc2)cnc1-n1cnn(C/C(=C\F)CN)c1=O` [Example 135, 2-[(2Z)-2-(aminomethyl)-3-fluoroprop-2-en-1-yl]-4-{3-methyl-5-[4-(4H-1,2,4-triazol-3-yl)phenyl]pyridin-2-yl}-2,4-dihydro-3H-1,2,4-triazol-3-one], the half-inhibitory concentration (IC50) on recombinant human VAP-1 (30 min preincubation at 37° C.) was 3.2 nM; in assay [2] (setting [3]) it was 520 nM.
In the case of `Cc1cc(-c2ccc(-c3nnc[nH]3)cc2)cnc1-n1cnn(C/C(=C/F)CN)c1=O` [Example 136, 2-[(2E)-2-(aminomethyl)-3-fluoroprop-2-en-1-yl]-4-{3-methyl-5-[4-(4H-1,2,4-triazol-3-yl)phenyl]pyridin-2-yl}-2,4-dihydro-3H-1,2,4-triazol-3-one], the results for the half-maximal inhibitory concentration (IC50) (on recombinant human VAP-1 (30 min preincubation at 37° C.); in assay [2] (setting [3])) were 0.62 nM and 6100 nM, respectively.
For `Cc1cc(-c2cccc(-c3nnn[nH]3)c2)cnc1-n1cnn(C/C(=C/F)CN)c1=O` [Example 144, 2-[(2E)-2-(aminomethyl)-3-fluoroprop-2-en-1-yl]-4-{3-methyl-5-[3-(1H-tetrazol-5-yl)phenyl]pyridin-2-yl}-2,4-dihydro-3H-1,2,4-triazol-3-one] the same measures were 3.3 nM and 1400 nM.
Regarding `NC/C(=C\F)Cn1ncn(-c2ncc(-c3cccc(-c4nnn[nH]4)c3)s2)c1=O` [Example 230, 2-[(2E)-2-(aminomethyl)-3-fluoroprop-2-en-1-yl]-4-{5-[3-(1H-tetrazol-5-yl)phenyl]-1,3-thiazol-2-yl}-2,4-dihydro-3H-1,2,4-triazol-3-one], the IC50 at recombinant human VAP-1 was found to be 0.53 nM; in assay [2] (1 mM putrescine substrate), 2.7 nM.
For `CC(=O)Nc1cc(-c2cnc(-n3cnn(C/C(=C/F)CN)c3=O)s2)ccn1` [Example 231, N-[4-(2-{1-[(2E)-2-(aminomethyl)-3-fluoroprop-2-en-1-yl]-5-oxo-1,5-dihydro-4H-1,2,4-triazol-4-yl}-1,3-thiazol-5-yl)pyridin-2-yl]acetamide] the same measures were 0.94 nM and 0.086 nM.
In the case of `NC/C(=C\F)Cn1ncn(-c2ncc(-c3ccc4c(c3)NC(=O)C4)s2)c1=O` [Example 233, 6-(2-{1-[(2E)-2-(aminomethyl)-3-fluoroprop-2-en-1-yl]-5-oxo-1,5-dihydro-4H-1,2,4-triazol-4-yl}-1,3-thiazol-5-yl)-1,3-dihydro-2H-indol-2-one], the values for the concentration for half-maximal inhibition (IC50) (on recombinant human VAP-1; in assay [2] (1 mM putrescine substrate)) were 1.7 nM and 1.2 nM, respectively.

(Values after US11492335B2, “Aryl or heteroaryl triazolone derivatives or salts thereof, or pharmaceutical compositions comprising the same” (YUHAN CORPORATION, priority 2018, dated 2022).)
